We go through two substances from patent US20160287626A1, “METHODS OF TREATING AND PREVENTING RADIATION DAMAGE” (CANTEX PHARMACEUTICALS, INC., priority 2013, published 2016).

The test system of experiment [1] is CD2F1 mice irradiated with 9.25 Gy. As to the kind of experiment: Survival of CD2F1 mice after 9.25 Gy total body irradiation. The conditions noted are these: 9.25 Gy TBI. Format: in vivo. On the procedure:
FIG. 1 provides a graph illustrating the survival of CD2F1 mice after total body irradiation: control group with no post-irradiation treatment (o); 0.1 mL PBS administered subcutaneously at 4 h post-irradiation (□); 0.1 mL PBS administered subcutaneously at 24, 36, and 48 h post-irradiation (Δ); 0.1 mL 25 mg/kg ODSH administered subcutaneously at 4, 16, and 28 h post-irradiation (▪); and 0.1 mL 25 mg/kg ODSH administered subcutaneously at 24, 36, and 48 h post-irradiation (▴).
CD2F1 male mice (Batch #7586 DOB Dec. 23, 2012) were weighed and animals outside ±20% of the mean weight were excluded. Mice that were within ±20% of the mean weight were randomized into groups of eight animals per box. There were 24 animals per treatment group. The animals received radiation at a dose rate of 0.6 Gy/min in the AFRRI Cobalt 60 gamma radiation facility. Animals were irradiated in Lucite boxes (8 animals/box) and arranged in an array (dosimetry Feb. 25, 2010) using plastic racks. Animals were restrained for no more than 60 min and returned to cages at the end of the irradiation period.
Post-TBI, animals were untreated (naïve) or treated subcutaneously with either phosphate buffered solution (PBS) or ODSH (2-O, 3-O desulfated heparin). […] The animals were monitored daily (twice a day when necessary) for 30 days and euthanized at the completion of the observational period.

The subject of another experiment is anti-coagulant activity. The conditions noted are these: cited from earlier work.

“Also recorded” adds a separate entry of the source.

With 2-O, 3-O desulfated heparin [ODSH], the “survival over the post-irradiation period compared with naïve and PBS-treated mice” value in experiment [1] (25 mg/kg s.c. post-irradiation (24, 36 and 48 h), 30-day observation, 25 mg/kg) is “greatest percentage survival; also recorded: improves survival”. In addition, the “mice still alive at day 10 post-irradiation” value in experiment [1] (0.1 mL 25 mg/kg s.c. at 24, 36 and 48 h post-irradiation, day 10) was determined as 95%. Further, in the experiment on anti-coagulant activity, the “anti-coagulant activity in the USP anti-coagulant assay” value was “less than 9 U/mg”. Also, the “anti-coagulant activity in the USP anti-coagulant assay (example value)” value in the experiment with anti-coagulant activity (e.g. value) is recorded as 7±0.3 U.
As to “Unfractionated heparin [reference compound]”, the “anti-coagulant activity in the USP anti-coagulant assay” value with anti-coagulant activity is recorded as 165-190 U/mg.
